Patent publication US20260240760A1, “Injectable Compositions of Vitamers of Vitamin B12 and Uses Thereof” (Nevakar Injectables Inc., priority 2023, published 2026)

Legend:
[1] = within 48 hours of injection; current standard-of-care injectable compositions; cited from earlier work
[2] = Cyanocobalamin concentration and appearance of polymer/DMSO compositions and stock solutions, with or without pamoic acid; assay type: physicochemical; details: pamoic acid present relative to not present
Description: Compositions comprising 25% polymer and cyanocobalamin either with or without pamoic acid (i.e., to form a cyanocobalamin pamoate salt) in 100% DMSO were prepared starting from 12 mg/g stock solutions, as shown in Tables 2 and 3.

Substance | vitamin B12 excreted in urine [1] | Dissolution of cyanocobalamin in compositions comprising poly(lactide-co-glycolide) and DMSO [2]
vitamin B12 | ≤ 98% | –
cyanocobalamin pamoate | – | dissolves significantly more effectively
